Measured values reported in ChEMBL document CHEMBL1150524, “Two novel, potent and selective histamine H3 receptor agonists” (Bioorg Med Chem Lett, 1992).
Calls of active or inactive are those of the source. No cut-off for these calls is given here.

How the values were obtained:
Format in all cases: functional, tissue-based
Histamine H3 receptor = Histamine H3 receptor (Cavia porcellus, UniProt Q9JI35); assay: Histamine H3 receptor agonist activity was assessed by the inhibition of the electrically evoked twitch response of the guinea-pig ileum.
[1] = target: Histamine H1 receptor (Cavia porcellus) (UniProt P31389); assay: Effect on histamine H1 receptor of the guinea-pig ileum, at 10e-5 M concentration; not significant
[2] = target: Histamine H2 receptor (Cavia porcellus) (UniProt P47747); assay: Effect on histamine H2 receptor of the guinea-pig atrium, at 10e-5 M concentration; not significant; settings: Cardiac atrium
Chain of Histamine H2 receptor (Cavia porcellus) (P47747 whole entry): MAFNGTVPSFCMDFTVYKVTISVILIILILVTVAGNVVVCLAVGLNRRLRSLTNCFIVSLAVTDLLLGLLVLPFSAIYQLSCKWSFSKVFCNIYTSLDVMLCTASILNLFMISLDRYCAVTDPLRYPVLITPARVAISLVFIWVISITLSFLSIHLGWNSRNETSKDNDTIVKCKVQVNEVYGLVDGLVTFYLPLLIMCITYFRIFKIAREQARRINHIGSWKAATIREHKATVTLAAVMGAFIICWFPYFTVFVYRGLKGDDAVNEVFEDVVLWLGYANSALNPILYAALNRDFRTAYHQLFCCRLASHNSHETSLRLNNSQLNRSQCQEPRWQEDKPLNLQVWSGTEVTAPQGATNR

Chain of Histamine H1 receptor (Cavia porcellus) (P31389 whole entry): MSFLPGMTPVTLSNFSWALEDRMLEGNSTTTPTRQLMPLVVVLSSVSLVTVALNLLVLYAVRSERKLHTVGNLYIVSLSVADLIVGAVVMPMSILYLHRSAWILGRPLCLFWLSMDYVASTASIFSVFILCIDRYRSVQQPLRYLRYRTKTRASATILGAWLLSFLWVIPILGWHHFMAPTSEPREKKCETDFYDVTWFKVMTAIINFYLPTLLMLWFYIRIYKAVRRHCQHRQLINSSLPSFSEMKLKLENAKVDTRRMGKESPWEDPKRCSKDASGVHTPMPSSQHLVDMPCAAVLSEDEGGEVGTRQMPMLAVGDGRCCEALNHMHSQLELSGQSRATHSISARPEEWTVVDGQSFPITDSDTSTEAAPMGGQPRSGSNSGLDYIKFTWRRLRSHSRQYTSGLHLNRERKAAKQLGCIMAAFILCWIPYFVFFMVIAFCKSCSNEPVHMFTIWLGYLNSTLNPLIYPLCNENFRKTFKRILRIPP
Chain of Histamine H3 receptor (Q9JI35 whole entry): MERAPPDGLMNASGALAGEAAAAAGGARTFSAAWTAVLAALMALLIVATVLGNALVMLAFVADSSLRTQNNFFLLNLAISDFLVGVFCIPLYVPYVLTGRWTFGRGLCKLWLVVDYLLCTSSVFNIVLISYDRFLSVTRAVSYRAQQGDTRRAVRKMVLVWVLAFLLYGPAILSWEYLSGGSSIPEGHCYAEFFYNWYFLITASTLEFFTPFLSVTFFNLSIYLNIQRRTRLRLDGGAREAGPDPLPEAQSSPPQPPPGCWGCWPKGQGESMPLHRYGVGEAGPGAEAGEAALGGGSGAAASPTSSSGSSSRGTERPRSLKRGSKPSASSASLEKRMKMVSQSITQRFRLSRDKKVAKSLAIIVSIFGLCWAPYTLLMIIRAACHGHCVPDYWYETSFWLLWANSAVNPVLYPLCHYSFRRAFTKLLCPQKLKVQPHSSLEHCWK

For `N=C(N)SCCc1cnc[nH]1` [IMETIT], the IC50 (Histamine H3 receptor) was 4.6 nM.
With `N=C(N)SCCc1c[nH]cn1` the Activity [1] was “inactive” and the Activity [2] was “inactive”.
For `N=C(N)CCCc1c[nH]cn1`, the Activity [1] was “inactive”, the IC50 (Histamine H3 receptor) was 1.1 nM and the Activity [2] was “inactive”.
